Measured values published in EP3928777A1, “4,5-DIHYDRO-OXAZOL-2-YLAMINE DERIVATIVES FOR USE IN THE PREVENTION OR TREATMENT OF ALCOHOL USE DISORDER” (Instytut Biologii Doswiadczalnej im. Marcelego Nenckiego …, priority 2020, dated 2021).

How the values were obtained:
[1] = test system: mice; experiment: Motivation to drink alcohol: progressive nose-poke test in IntelliCages; type: in vivo; conditions: 10 mg/kg bw intraperitoneal, 20% alcohol, attempts measured over 20 hours, 3 tests, Fig. 5
Experimental: The effect of RO5256390 administration on motivation to drink alcohol was also assessed experimentally. In this experiment a new group of animals was used, these were 13 animals that underwent a three-month adaptive training to drink alcohol (20%) in IntelliCages. The motivation to drink alcohol was then assessed for each animal by conducting 3 tests. For the purposes of the test, the IntelliCage was designed in such a way that access to alcohol for a given animal was only possible, with a certain number of so-called "nose-pokes", meaning cutting the laser beam with the snout when trying to reach the alcohol bottle. In order to drink alcohol, the animal must first cut the beam twice, then 4, 8, 12, 16 times etc. After the required number of nose-pokes are made, the alcohol-blocking door opens. The more attempts to get into the alcohol bottle and the greater the number of beam intersection events achieved, the greater the motivation to drink alcohol. Each test started when half of the water bottles was replaced with 20% alcohol bottles. During the next 20 hours the number of drinking attempts was measured for each animal. After 3 series of motivational tests, which were carried out at weekly intervals, the animals were divided into two experimental groups. […]

[2] = test system: cocaine-dependent or binge eating animals; conditions: cited from earlier work
[3] = test system: animal models; experiment: Toxicity in animal models; type: in vivo
Experimental: (§1) The compound of Formula II is additionally easy to prepare and formulate (well soluble in a solution of 5% ethanol and 10% collyphor for an exemplary dose of 10 mg/kg body weight in an intraperitoneal administration), it appears to be non-toxic in animal models.

[4] = Solubility in the injection vehicle; type: physicochemical; conditions: solution of 5% ethanol and 10% collyphor, for an exemplary dose of 10 mg/kg body weight, intraperitoneal administration
Experimental: as §1

[5] = test system: C57BL/6 mouse; experiment: Amount of alcohol (20%) consumed by alcohol-trained mice in IntelliCages after intraperitoneal injection; type: in vivo; conditions: versus vehicle control group
Experimental: The study involved 30 C57BL/6 mouse subjects that had undergone a two-month, earlier adaptive training to drink alcohol (20%) in IntelliCages (Fig. 1), under typical living conditions (temperature: 21-23°C, humidity 50-60%, 12/12 light-dark cycle). During the adaptive training, the mice had constant access to food and water except for: • 1. 25 days, during which, 2 hours after the beginning of the dark phase, all water bottles were replaced for 3 hours with bottles containing 20% alcohol (no access to clean water at all). • 2. 15 days, during which, 2 hours after the beginning of the dark phase, half of the water bottles were replaced for 3 hours with bottles containing 20% alcohol (possibility to choose water or alcohol). […]
During the adaptive training, the amount of alcohol consumed was recorded for each animal separately. […] The degree of preference for drinking alcohol was determined according to the following criteria: • high-drinkers: on average from 100 to 200 licks of alcohol, with a choice between water and alcohol (3 hour session); • medium-drinkers: on average from 50 to 100 licks of alcohol, with a choice between water and alcohol; (3 hour session); • low-drinkers: on average from 0 to 50 licks of alcohol, with a choice between water and alcohol; (3 hour session); […]

CC[C@@H](C[C@H]1COC(N)=N1)c1ccccc1 [RO5256390]
motivation to drink alcohol (number of alcohol drinking attempts) [1]: reduces the motivation to drink alcohol
suppressing compulsive behavior [2]: effective in suppressing compulsive behavior
toxicity [3]: non-toxic
solubility [4]: well soluble
amount of consumed alcohol during 20 hours after injection ([5]; 10 mg/kg bw intraperitoneal, 20% alcohol, Fig. 3): statistically significant lower amount of alcohol
amount of consumed alcohol in the 20 hours post injection after a 10 day abstinence period ([5]; access to alcohol blocked for 10 days, treated as previously (10 mg/kg bw i.p.), Fig. 4): statistically significantly lower amount of alcohol
